For six compounds, Rf, Activity and Ratio results are on record in ChEMBL document CHEMBL3244056, “Synthesis and some pharmacological properties of [4-threonine, 7-glycine]oxytocin, [1-(L-2-hydroxy-3-mercaptopropanoic acid), 4-threonine, 7-glycine]oxytocin (hydroxy[Thr4, Gly7]oxytocin), and [7-Glycine]oxytocin, peptides with high oxytocic-antidiuretic selectivity” (J Med Chem, 1977).

Starred links: 1 amine or outer side, 2 acyl side, 3 side chain; linkers in the order of their positions; H or OH if unused. Positions of bridges follow the written chain, without caps; N, C: chain ends. Residues, ends and D or L forms follow the SMILES beside them. X1 = O=C([C@H](O)CS[*:2])[*:1]

Data set [1] in a line: Retardation factor, Rf value of the compound in butan-1-ol-acetic acid-water-ethyl acetate (1:1:1:1 v/v) solvent system. Type of data set: physicochemical. The note with it: buffer.
Data set [2] in a line: Retardation factor, Rf value of the compound in butan-1-ol-acetic acid-water-pyridine (15:3:3:10v/v) solvent system. Type of data set: physicochemical. The settings on record: buffer.
Data set [3] is described as follows: Oxytocic potency in rat by uterus assay. Type of data set: functional.
Data set [4] in a line: Oxytocic potency in rat by mammary strip assay. The format is functional.
A short description of data set [5]: Retardation factor, Rf value of the compound in butan-1-ol-water (3.5% in acetic acid, 1.5% in pyridine) (1:1 v/v,upper phase) solvent system. Type of data set: physicochemical. The settings on record: buffer.
The species entered for data set [6] is Rattus norvegicus. Nature of the data set: Vasopressor activity in rat. The format is ADME, organism-based. The settings on record: in vivo.
Data set [7] concerns Rattus norvegicus. Nature of the data set: Antidiuretic activity in iv dosed rat. The format is ADME, organism-based, Urine. The settings on record: in vivo.
For data set [8], the species on record is Rattus norvegicus. Nature of the data set: Oxytocic potency in rat assessed as milk ejection. The format is functional.
The species entered for data set [9] is Rattus norvegicus. Nature of the data set: Ratio of oxytocic potency to antidiuretic activity in rat. More on the design: species or system Urine.
Data set [10] can be described thus: Oxytocic potency in rat by uterus assay in presence of 0.5 mM Mg2+. The format is functional.
Data set [11] in a line: Retardation factor, Rf value of the compound in butan-1-ol-acetic acid-water (4:1:5 v/v, upper phase) solvent system. Type of data set: physicochemical. The note with it: buffer.
The species entered for the next data set is Oryctolagus cuniculus. Nature of the data set: Oxytocic potency in rabbit assessed as milk ejection. Type of data set: functional.

As to `CC[C@H](C)[C@@H]1NC(=O)[C@H](Cc2ccc(O)cc2)NC(=O)[C@@H](N)CSSC[C@@H](C(=O)NCC(=O)N[C@@H](CC(C)C)C(=O)NCC(N)=O)NC(=O)[C@H](CC(N)=O)NC(=O)[C@H]([C@@H](C)O)NC1=O` (H-CYITNCGLG-NH2; disulfide 1-6), the Rf in [1] is 0.85; in data set [2], 0.83; in data set [5], 0.27; in data set [11], 0.37. For the same compound, the Activity in data set [3] was 166 U/mg; in data set [4], 490 U/mg; in the data set listed under Rattus norvegicus [6], less than 0.01 U/mg; in the data set on Rattus norvegicus [7] it was 0.002 U/mg; in the data set filed under Rattus norvegicus [8], 802 U/mg; in data set [10] it was 857 U/mg. The Ratio in the data set listed under Rattus norvegicus [9] stood at 83000.

In the case of `CC[C@H](C)[C@@H]1NC(=O)[C@H](Cc2ccc(O)cc2)NC(=O)[C@@H](N)CSSC[C@@H](C(=O)N2CCC[C@H]2C(=O)N[C@@H](CC(C)C)C(=O)NCC(N)=O)NC(=O)[C@H](CC(N)=O)NC(=O)[C@H]([C@@H](C)O)NC1=O` (H-CYITNCPLG-NH2; disulfide 1-6), the Activity in data set [3] came to 923 U/mg; in the data set listed under Rattus norvegicus [6], 0.43 U/mg; in the data set with Rattus norvegicus [7], 1.8 U/mg; in the data set listed under Rattus norvegicus [8] it was 543 U/mg; in data set [10] it was 719 U/mg. The Ratio in the data set filed under Rattus norvegicus [9] stood at 510.

Take `CC[C@H](C)[C@@H]1NC(=O)[C@H](Cc2ccc(O)cc2)NC(=O)[C@@H](N)CSSC[C@@H](C(=O)N2CCC[C@H]2C(=O)N[C@@H](CC(C)C)C(=O)NCC(N)=O)NC(=O)[C@H](CC(N)=O)NC(=O)[C@H](CCC(N)=O)NC1=O` [OXYTOCIN]: the Activity worked out at 520 U/mg in data set [3]; 533 U/mg in data set [4]; 4 U/mg in the data set on Rattus norvegicus [7]; 486 U/mg in data set [10]; 543 U/mg in the data set filed under Oryctolagus cuniculus.

Take `CC[C@H](C)[C@@H]1NC(=O)[C@H](Cc2ccc(O)cc2)NC(=O)[C@H](O)CSSC[C@@H](C(=O)N2CCC[C@H]2C(=O)N[C@@H](CC(C)C)C(=O)NCC(N)=O)NC(=O)[C@H](CC(N)=O)NC(=O)[C@H]([C@@H](C)O)NC1=O` (YITNCPLG-NH2; linker N-5 via X1): the Activity worked out at 4179 U/mg in [3]; 378 U/mg in data set [4]; 4.92 U/mg in the data set listed under Rattus norvegicus [6]; 5.3 U/mg in the data set with Rattus norvegicus [7]; 808 U/mg in the data set listed under Rattus norvegicus [8]; 937 U/mg in [10]. Moreover, the Ratio in the data set filed under Rattus norvegicus [9] is reported as 790.

Consider `CC[C@H](C)[C@@H]1NC(=O)[C@H](Cc2ccc(O)cc2)NC(=O)[C@H](O)CSSC[C@@H](C(=O)NCC(=O)N[C@@H](CC(C)C)C(=O)NCC(N)=O)NC(=O)[C@H](CC(N)=O)NC(=O)[C@H]([C@@H](C)O)NC1=O` (YITNCGLG-NH2; linker N-5 via X1), for which the Rf in [1] worked out at 0.89; in data set [2], 0.88; in [5], 0.52; in [11], 0.56. Besides, the Activity in data set [3] is 218 U/mg; in [4], 623 U/mg; in the data set filed under Rattus norvegicus [6], less than 0.01 U/mg; with Rattus norvegicus [7], 0.004 U/mg; in the data set listed under Rattus norvegicus [8], 950 U/mg; in data set [10] it was 1002 U/mg. The Ratio in the data set filed under Rattus norvegicus [9] worked out at 54500.

Regarding `CC[C@H](C)[C@@H]1NC(=O)[C@H](Cc2ccc(O)cc2)NC(=O)[C@@H](N)CSSC[C@@H](C(=O)NCC(=O)N[C@@H](CC(C)C)C(=O)NCC(N)=O)NC(=O)[C@H](CC(N)=O)NC(=O)[C@H](CCC(N)=O)NC1=O` (H-CYIQNCGLG-NH2; disulfide 1-6), the Rf was 0.74 in [1], 0.75 in data set [2], 0.17 in [5] and 0.3 in data set [11]. Moreover, the Activity in [3] was 65 U/mg; in [4], 478 U/mg; in the data set filed under Rattus norvegicus [6], less than 0.01 U/mg; in the data set with Rattus norvegicus [7] it was 0.0056 U/mg; in the data set filed under Rattus norvegicus [8], 392 U/mg; in data set [10], 965 U/mg. For the same compound, the Ratio in the data set filed under Rattus norvegicus [9] is listed as 16600.
